This note sets out measurements from US10744128B2, “6-(5-membered heteroaryl)isoquinolin-3-yl-(5-membered heteroaryl) carboxamides and preparation and use thereof” (Samumed, LLC, priority 2017, dated 2020).

Assay [1] has as its system Wnt-responsive promoter (Sp5-Luc reporter) in SW480 colon carcinoma cells. Kind of assay: Sp5-Luc reporter gene screening assay for Wnt activity in SW480 cells. It counts as cell-based, human. The following applies: Homo sapiens, 36 to 48 hours, luminescence. Put shortly: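 SW480 cells stably carrying a luciferase reporter under an Sp5 promoter with eight TCF/LEF sites, plated at 4,000 cells/well in DMEM with 1% FBS and incubated 36 to 48 hours at 37° C. Luminescence normalized to DMSO-only cells; EC50 fitted by four-parameter nonlinear regression.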
A general note: In a reporter assay the amount or activity of a reporter protein is the signal.

In assay [2] the target is recombinant GSK3β kinase (Homo sapiens (Human), UniProt P49841). In words: GSK3β kinase assay (Ser/Thr 09 peptide Z-lyte, FRET). It counts as biochemical.
recombinant GSK3β kinase, sequence (P49841 whole entry): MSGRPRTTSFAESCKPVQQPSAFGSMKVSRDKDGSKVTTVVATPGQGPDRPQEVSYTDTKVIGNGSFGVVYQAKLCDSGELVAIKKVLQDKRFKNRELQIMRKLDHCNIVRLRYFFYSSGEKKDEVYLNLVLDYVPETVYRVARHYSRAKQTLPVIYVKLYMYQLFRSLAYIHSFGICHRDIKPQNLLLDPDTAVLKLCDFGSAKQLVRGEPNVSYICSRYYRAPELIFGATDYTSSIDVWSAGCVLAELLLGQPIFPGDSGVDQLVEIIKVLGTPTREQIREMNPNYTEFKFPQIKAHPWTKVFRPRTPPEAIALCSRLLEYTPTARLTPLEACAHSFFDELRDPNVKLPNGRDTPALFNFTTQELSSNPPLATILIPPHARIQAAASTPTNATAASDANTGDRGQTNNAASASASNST
The subject of assay [3] is SW480 colon carcinoma cells. In words: Cell viability assay (CellTiter-Glo) in SW480 cells. It is filed as cell-based, human. The following applies: Homo sapiens, 96 h, four days. (In general: In ATP-based viability assays light output follows the ATP content of the culture.)
Assay [4] relates to primary human fibroblasts derived from IPF patients (LL29 cells), α-smooth muscle actin. Kind of assay: Inhibition of fibrotic process: αSMA in TGF-β1 treated LL29 fibroblasts. It is filed as cell-based. The following applies: Homo sapiens, Fibroblast; for EC50: 96 h, LL29 cells, TGF-β1 20 ng/mL, 4 days, % cells positive for αSMA; for inhibition at 10 µM: read-out: percent inhibition at 10 μM. Put shortly:
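LL29 fibroblasts from IPF patients, in F12 medium with 1% FBS, treated with TGF-β1 plus compound; TGF-β1 with DMSO as positive control, DMSO alone as negative control. After 4 days' incubation, SYTOX green nucleic acid stain added at 1 μM final, 30 min at room temperature.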

Assay [5] deals with IL-6. In words: IL-6 inhibition in LPS-stimulated human peripheral blood mononuclear cells (HTRF). It counts as cell-based. Particulars: Homo sapiens, PBMC; for EC50: huPBMCs, LPS 50 ng/mL, 22 hours, IL-6 HTRF; for inhibition at 10 µM: read-out: percent inhibition at 10 μM. Put shortly: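 Fresh human PBMCs at 1×10e6 cells/mL in 1% FBS-RPMI were pretreated with compound for 2 h, then stimulated with 50 ng/mL E. coli 0111:B4 LPS for a further 22 h at 37 °C. IL-6 was measured by HTRF (665/620 nm ratio). Values were normalized to DMSO and fitted 4-parameter for EC50.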
A general note: Time-resolved FRET reads energy transfer from a long-lived donor to a nearby acceptor.

Assay [6] concerns the target recombinant DYRK1A kinase (Homo sapiens (Human), UniProt Q13627). Kind of assay: DYRK1A kinase assay (Ser/Thr 18 peptide Z-lyte, FRET).
[7] abbreviates: GSK3β kinase, 46 μM ATP, one hour, method calls values IC50.
Setting [8] is: DYRK1A kinase, 30 μM ATP, one hour, method calls values IC50.

In general, EC50 refers to the concentration that produces a half-maximal response. Broadly, the inhibition is how much of the control response was suppressed.

Like-named read-outs stand apart in the source and are kept apart here.

Turning to `Cn1cc(C(=O)Nc2cc3cc(-c4cncn4C)ccc3cn2)cn1` [Compound 40, 1-Methyl-N-(6-(1-methyl-1H-imidazol-5-yl)isoquinolin-3-yl)-1H-pyrazole-4-carboxamide], the concentration giving a half-maximal response (EC50) in assay [1] is 109 nM; in assay [2] (setting [7]), 1830 nM; in assay [3], 442 nM; in assay [4] it was more than 10000 nM; in assay [5], 0.751 µM; in assay [6] (setting [8]), 4 nM. Besides, the inhibition at 10 µM in assay [4] is 23.2%.
Turning to `CCn1cc(C(=O)Nc2cc3cc(-c4cncn4C)ccc3cn2)cn1` [Compound 41, 1-Ethyl-N-(6-(1-methyl-1H-imidazol-5-yl)isoquinolin-3-yl)-1H-pyrazole-4-carboxamide], the EC50 in assay [1] was 37 nM; in assay [2] (setting [7]), 850 nM; in assay [3], 102 nM; in assay [4], 122 nM; in assay [5], 0.618 µM; in assay [6] (setting [8]) it was 2 nM.
As to `CC(C)n1cc(C(=O)Nc2cc3cc(-c4cncn4C)ccc3cn2)cn1` [Compound 42, 1-Isopropyl-N-(6-(1-methyl-1H-imidazol-5-yl)isoquinolin-3-yl)-1H-pyrazole-4-carboxamide], the concentration giving a half-maximal response (EC50) in assay [1] was 602 nM; in assay [2] (setting [7]) it was 9990 nM; in assay [3], 999 nM; in assay [4] it was 2500 nM; in assay [5], more than 10 µM; in assay [6] (setting [8]), 23 nM. Also, the inhibition at 10 µM in assay [5] was found to be 37.1%.
Take `[2H]c1nc(NC(=O)c2cnn(C(C)C)c2)cc2cc(-c3cncn3C)ccc12` [Compound 43, 1-Isopropyl-N-(6-(1-methyl-1H-imidazol-5-yl)isoquinolin-3-yl-1-d)-1H-pyrazole-4-carboxamide]: the EC50 is 48 nM in assay [1]; 3070 nM in assay [2]; 83 nM in assay [3]; 151 nM in assay [4]; 0.251 µM in assay [5]; 2 nM in assay [6].
For `Cn1cncc1-c1ccc2cnc(NC(=O)c3cnn(C4CC4)c3)cc2c1` [Compound 44, 1-Cyclopropyl-N-(6-(1-methyl-1H-imidazol-5-yl)isoquinolin-3-yl)-1H-pyrazole-4-carboxamide], the concentration giving a half-maximal response (EC50) was determined as 37 nM in assay [1]; 1660 nM in assay [2] (setting [7]); 94 nM in assay [3]; 115 nM in assay [4]; 0.356 µM in assay [5]; 1 nM in assay [6] (setting [8]).
As for `CC(C)Cn1cc(C(=O)Nc2cc3cc(-c4cncn4C)ccc3cn2)cn1` [Compound 45, 1-Isobutyl-N-(6-(1-methyl-1H-imidazol-5-yl)isoquinolin-3-yl)-1H-pyrazole-4-carboxamide], the EC50 was found to be 55 nM in assay [1]; 1190 nM in assay [2] (setting [7]); 111 nM in assay [3]; 88 nM in assay [4]; 0.414 µM in assay [5]; 1 nM in assay [6] (setting [8]).
As to `Cn1ccc(C(=O)Nc2cc3cc(-c4cncn4C)ccc3cn2)n1` [Compound 46, 1-Methyl-N-(6-(1-methyl-1H-imidazol-5-yl)isoquinolin-3-yl)-1H-pyrazole-3-carboxamide], the EC50 in assay [1] is 1250 nM; in assay [2] (setting [7]), 1770 nM; in assay [3], 2180 nM; in assay [4], 1530 nM; in assay [5] it was more than 10 µM; in assay [6] (setting [8]), 5 nM. Besides, the inhibition at 10 µM in assay [5] turned out to be 46.1%.
Take `Cn1cc(CC(=O)Nc2cc3cc(-c4cncn4C)ccc3cn2)cn1` [Compound 47, N-(6-(1-methyl-1H-imidazol-5-yl)isoquinolin-3-yl)-2-(1-methyl-1H-pyrazol-4-yl)acetamide]: the EC50 in assay [1] came out at 556 nM; in assay [2] (setting [7]), 29 nM; in assay [3] it was 607 nM; in assay [4] it was 94 nM; in assay [5], 0.388 µM; in assay [6] (setting [8]) it was 3 nM.
`Cn1cnc(C(=O)Nc2cc3cc(-c4cncn4C)ccc3cn2)c1` [Compound 48, 1-Methyl-N-(6-(1-methyl-1H-imidazol-5-yl)isoquinolin-3-yl)-1H-imidazole-4-carboxamide]: the 50% effective concentration (EC50) in assay [1] was 1160 nM; in assay [2] (setting [7]), 3380 nM; in assay [3] it was 3550 nM; in assay [4] it was more than 10000 nM; in assay [5], more than 10 µM; in assay [6] (setting [8]), 18 nM. For the same compound, the inhibition at 10 µM turned out to be 6.7% in assay [4] and 17.8% in assay [5].
As for `CC(C)n1cnc(C(=O)Nc2cc3cc(-c4cncn4C)ccc3cn2)c1` [Compound 49, 1-Isopropyl-N-(6-(1-methyl-1H-imidazol-5-yl)isoquinolin-3-yl)-1H-imidazole-4-carboxamide], the EC50 in assay [1] amounted to 35 nM; in assay [2] (setting [7]), 1340 nM; in assay [3], 73 nM; in assay [4], 86 nM; in assay [5] it was 0.285 µM; in assay [6] (setting [8]), 2 nM.
As for `Cn1cncc1-c1ccc2cnc(NC(=O)c3cn(C4CCOCC4)cn3)cc2c1` [Compound 50, N-(6-(1-Methyl-1H-imidazol-5-yl)isoquinolin-3-yl)-1-(tetrahydro-2H-pyran-4-yl)-1H-imidazole-4-carboxamide], the EC50 in assay [1] came to 100 nM; in assay [2] (setting [7]) it was 4490 nM; in assay [3] it was 833 nM; in assay [4], 1180 nM; in assay [5] it was 3.28 µM; in assay [6] (setting [8]), 21 nM.
Regarding `Cc1ncc(C(=O)Nc2cc3cc(-c4cncn4C)ccc3cn2)n1C` [Compound 51, 1,2-Dimethyl-N-(6-(1-methyl-1H-imidazol-5-yl)isoquinolin-3-yl)-1H-imidazole-5-carboxamide], the concentration for a half-maximal effect (EC50) in assay [1] was 466 nM; in assay [2] (setting [7]), 641 nM; in assay [3], 844 nM; in assay [4], more than 10000 nM; in assay [5], more than 10 µM; in assay [6] (setting [8]), 4 nM. Besides, the inhibition at 10 µM in assay [4] stood at 6.5%; in assay [5], 10.9%.
Take `Cn1cnc(C(=O)Nc2cc3cc(-c4cncn4C)ccc3cn2)n1` [Compound 52, 1-Methyl-N-(6-(1-methyl-1H-imidazol-5-yl)isoquinolin-3-yl)-1H-1,2,4-triazole-3-carboxamide]: the concentration for a half-maximal effect (EC50) in assay [1] was 2180 nM; in assay [2] (setting [7]), 5030 nM; in assay [3], 3610 nM; in assay [4] it was more than 10000 nM; in assay [5], more than 10 µM; in assay [6] (setting [8]), 9 nM. Further, the inhibition at 10 µM worked out at 33.8% in assay [4] and 1.1% in assay [5].
Consider `Cc1nc(C(=O)Nc2cc3cc(-c4cncn4C)ccc3cn2)co1` [Compound 53, 2-Methyl-N-(6-(1-methyl-1H-imidazol-5-yl)isoquinolin-3-yl)oxazole-4-carboxamide], for which the EC50 in assay [1] is 1890 nM; in assay [2] (setting [7]) it was 821 nM; in assay [3], 3200 nM; in assay [4], 2420 nM; in assay [5] it was more than 10 µM; in assay [6] (setting [8]), 14 nM. In assay [5], the inhibition at 10 µM was determined as 47.5%.
With `CC(C)c1nc(C(=O)Nc2cc3cc(-c4cncn4C)ccc3cn2)co1` [Compound 54, 2-Isopropyl-N-(6-(1-methyl-1H-imidazol-5-yl)isoquinolin-3-yl)oxazole-4-carboxamide], the EC50 in assay [1] stood at 2130 nM; in assay [2] (setting [7]), 1920 nM; in assay [3], 3730 nM; in assay [4], 3210 nM; in assay [5], 6.51 µM; in assay [6] (setting [8]), 18 nM.
Take `Cc1coc(C(=O)Nc2cc3cc(-c4cncn4C)ccc3cn2)n1` [Compound 55, 4-Methyl-N-(6-(1-methyl-1H-imidazol-5-yl)isoquinolin-3-yl)oxazole-2-carboxamide]: the half-maximal effective concentration (EC50) is 1120 nM in assay [1]; 986 nM in assay [2] (setting [7]); 3070 nM in assay [3]; 3810 nM in assay [4]; 9.47 µM in assay [5]; 7 nM in assay [6] (setting [8]).
Turning to `Cc1csc(C(=O)Nc2cc3cc(-c4cncn4C)ccc3cn2)n1` [Compound 56, 4-Methyl-N-(6-(1-methyl-1H-imidazol-5-yl)isoquinolin-3-yl)thiazole-2-carboxamide], the EC50 was determined as 2310 nM in assay [1]; 9990 nM in assay [2] (setting [7]); 3070 nM in assay [3]; 3190 nM in assay [4]; 8.92 µM in assay [5]; 5 nM in assay [6] (setting [8]).
Regarding `Cc1nc(C(=O)Nc2cc3cc(-c4cncn4C)ccc3cn2)cs1` [Compound 57, 2-Methyl-N-(6-(1-methyl-1H-imidazol-5-yl)isoquinolin-3-yl)thiazole-4-carboxamide], the concentration for a half-maximal effect (EC50) in assay [1] was 2550 nM; in assay [2] (setting [7]), 1610 nM; in assay [3], 1810 nM; in assay [4], 2830 nM; in assay [5], more than 10 µM; in assay [6] (setting [8]), 6 nM. Also, the inhibition at 10 µM in assay [5] is 19.6%.
